Test results published in US20250152605A1, “METHOD AND DRUG FOR TREATING NEURONAL CEROID LIPOFUSCINOSIS” (priority 2021, published 2025).

Assays:
SCMAS protein = SCMAS protein storage in neurons (immunofluorescence staining and western blot); type: cell-based, human; settings: CLN3^Δex7/8 neurons
Procedure: Sample preparation: for adherent cultured cells, exemplified by cells cultured in a six-well cell plate, the cell medium was aspirated and the cells were washed once with dPBS. About 100 μL of RIPA lysate (50 mM Tris-HCl, pH 7.5, 150 mM NaCl, 0.25% Na-deoxycholate, 0.1% NP-40, 0.1% Triton X-100) containing protease inhibitors and phosphatase inhibitors was added to each well. The cell lysate was scraped off completely with a cell scraper and collected into 1.5 mL EP tubes. Lysis was continued for 30 minutes on ice. For animal tissue, the weight of the animal tissue was weighed, and RIPA lysate containing protease inhibitors and phosphatase inhibitors was added with five times the volume of the animal tissue. The tissue was grinded on ice with a tissue grinder until there is no obvious tissue mass, collected into 1.5 mL EP tubes, and placed on ice for further lysis for 30 min. […]

[1] = tested on: CLN3^Δex7/8 neural stem cells; assay: Immunofluorescence staining of neural stem cell lineage markers; type: cell-based, human; settings: 48 hours of treatment
Procedure: Fixation: the cell medium was aspirated and the cells were washed once with dPBS, then 4% paraformaldehyde solution was added to fix the cells, which were then incubated at room temperature for 20 min and washed 3 times with dPBS for 5 min each; blocking and permeabilization: blocking solution (5% BSA and 0.3% Trinton-X100 dissolved in dPBS) was added, incubation at room temperature for 1 hour followed by washing with dPBS 3 times for 5 minutes each; primary antibody incubation: the antibody was diluted with dPBS containing 5% BSA according to the specification, incubated overnight at 4° C. or 2 hours at room temperature, and washed 3 times with dPBS for 5 minutes each; secondary antibody incubation: the secondary antibody of the corresponding species was diluted with dPBS containing 5% BSA at a ratio of 1:1000, incubated at room temperature for 1 hour, and then washed with dPBS 3 times for 5 minutes each; nuclear staining: DAPI was diluted to 100 ng/ml with dPBS, incubated at room temperature for 5 minutes, and washed 3 times with dPBS for 5 minutes each; imaging: imaging was performed using Olympus IX83 Inverted Motorized Microscope or Opera Phenix™ High Content Screening System.
After 48 hours of treatment of CLN3^Δex7/8 neural stem cells with Compound G, immunofluorescence staining was performed for the neural stem cell lineage markers SOX1, PAX6 and NESTIN.

[2] = tested on: APP-gene mutant human neurons; assay: Human neuron model of Alzheimer's dementia (Aβ immunofluorescence, Aβ42 ELISA); type: cell-based
Source text: FIG. 44: Compound G reduced Aβ protein storage and secretion levels of toxic Aβ42 in APP mutant neurons. (a) Immunofluorescence staining, for detecting Compound G-treated APP mutant neurons for abnormal accumulation of Aβ protein and (b) statistics of Aβ plaque area, and the scale bar was 50 μm. (c) ELISA tests, for measuring the effect of Compound G on the secretion level of toxic Aβ42 of APP mutant neurons.
The present disclosure detected the therapeutic effect of the treatment of Compound G on Alzheimer's dementia. We directed the differentiation of human embryonic stem cells with mutations in APP gene into human neurons in vitro and constructed an in vitro human neuron model of Alzheimer's dementia.

C/C=C1\C(=O)C[C@H]2[C@@H]3CCC4=CC(=O)CC[C@]4(C)[C@H]3CC[C@]12C [Compound G, (Z)-guggulsterone]
abnormal storage of SCMAS protein (SCMAS protein): significant reduction | neural stem cell lineage markers SOX1, PAX6 and NESTIN (cell fate) [1]: maintained the characteristics of SOX1, PAX6 and NESTIN positive | deposition of Aβ plaques [2]: significant reduction | level of toxic Aβ42 secreted by the cells into the culture medium ([2]; ELISA): significant reduction
